Laboratory results published in US7462634B2, “N-(pyridin-2-yl)-sulfonamide derivatives” (Agouron Pharmaceuticals, Inc., priority 2005, dated 2008).

Assays:
human 11βHSD1 [1] = biological target: T1, human 11βHSD1 (Homo sapiens, UniProt P28845); assay: 11βHSD1 enzymatic assay (Kiapp determination); format: biochemical
Procedure: The 11βHSD1 assay was performed in a 100 mM Triethanolamine buffer pH 8.0, containing 200 mM NaCl, 0.02% n-dodecyl β-D-maltoside, 5% glycerol, 5 mM β-mercaptoethanol. A typical reaction for the determination of Kiapp values was carried at room temperature in a Corning® u-bottom 96-well plate and is described as follows: 11βHSD1 enzyme (5 nM, final concentration) was pre-incubated in the presence of the inhibitor and NADPH (500 μM, final concentration) for at least 30 minutes in the assay buffer. When pre-incubation was completed, the reaction was initiated by adding the regenerating system (2 mM Glucose-6-Phosphate, 1 U/mL Glucose-6-Phosphate dehydrogenase, and 6 mM MgCl2, all the concentration reported are final in the assay buffer), and 3H-cortisone (200 nM, final concentration). After 60 minutes, 60 μL of the assay mixture was transferred to a second 96-well plate and mixed with an equal volume of dimethylsulfoxide to stop the reaction. A 15 μL aliquot from the reaction mixture was loaded into a C-18 column (Polaris C18-A, 50×4.6 mm, 5μ, 180 Angstrom from Varian) connected to an automated High-throughput Liquid Chromatography instrument developed by Cohesive Technologies, commercially available from Franklin, Mass. USA, with a β-RAM model 3 Radio-HPLC detector from IN/US, commercially available from Tampa, Fla. USA. The substrate and product peaks were separated by using an isocratic mixture of 43:57 methanol to water (v/v) at a flow rate of 1.0 mL/min.
The initial reaction velocities were measured by stopping the reaction at 60 min and by measuring the area of product formation in the absence and the presence of various concentrations of inhibitors. The Kiapp values were determined using the equation for tight-binding inhibitor developed by Morrison, J F. (Morrison J F. Biochim Biophys Acta. 1969; 185: 269-86):
Where vi, and vo are the rates of cortisol formation in the presence and in the absence of inhibitor, respectively, I is the inhibitor concentration and E is the 11βHSD1 concentration in the assay buffer. All the concentrations reported are the final concentrations in the assay buffer
See also Morrison, J. F., “Kinetics of the reversible inhibition of enzyme-catalysed reactions by tight-binding inhibitors,” Biochim Biophys Acta., 1969; 185: 269-86.

human 11βHSD1 [2] = biological target: T1, human 11βHSD1; assay: 11βHSD1 enzymatic assay, percentage of inhibition; format: biochemical; settings: inhibitor at 0.1 uM
Procedure: Percentage of inhibition was determined in a 100 mM Triethanolamine buffer, pH 8.0, 200 mM NaCl, 0.02% n-dodecyl β-D-maltoside and 5mM β-ME. A typical reaction was carried on a Corning® u-bottom 96-well plate and is described as follows: 11βHSD1 enzyme (5 nM, final concentration) was pre-incubated in the presence of the inhibitor and NADPH (500 μM, final concentration) for at least 30 minutes in the assay buffer. When pre-incubation was completed, the reaction was initiated by adding the regenerating system (2 mM Glucose-6-Phosphate, 1 U/mL Glucose-6-Phosphate dehydrogenase, and 6 mM MgCl2, all the concentration reported are final in the assay buffer), and 3H-cortisone (200 nM, final concentration). After 60 minutes, 60 μL of the assay mixture was transferred to a second 96-well plate and mixed with an equal volume of dimethylsulfoxide to stop the reaction. A 15 μL aliquot from the reaction mixture was loaded into a C-18 column (Polaris C18-A, 50×4.6 mm, 5μ, 180 Angstrom from Varian) connected to an automated High-throughput Liquid Chromatography instrument developed by Cohesive Technologies commercially available from Franklin, Mass., with a β-RAM model 3 Radio-HPLC detector from IN/US commercially available from Tampa, Fla. The substrate and product peaks were separated by using an isocratic mixture of 43:57 methanol to water (v/v) at a flow rate of 1.0 mL/min.
Percent Inhibition was calculated based on the following equation: (100−(3H-Cortisol peak area with inhibitor/3Hcortisol peak area without inhibitor)×100).
[1,2-3H]-cortisone is commercially available from American Radiolabeled Chemicals Inc. of St. Louis, Mo. USA. NADPH while Glucose-6-Phosphate and Glucose-6-Phosphate dehydrogenase was purchased from Sigma®.

human 11βHSD1 [3] = biological target: T1, human 11βHSD1; assay: Human Fa2N-4 immortalized cell-based assay (cortisol accumulation); settings: Fa2N-4 human hepatocyte-derived cells, cortisol EIA, 5 μM cortisone, overnight
Procedure: Human Fa2N-4 Immortalized Cell-Based Assay
Fa2N4 is a cell line derived from human hepatocytes, developed by MultiCell Technologies, Inc. (U.S. Pat. No. 6,107,043), and commercialized by XenoTech LLC via an exclusive license. […] Inhibition of 11βHSD1 enzyme activity was assessed in this cell model by measuring decrease in cortisol (enzyme product) accumulation in cultures co-treated with cortisone (enzyme substrate) and the potential enzyme inhibitor. Cortisol signal was quantitatively determined in the supernatant of treated cells by means of the Correlate-Enzyme Immunoassay (EIA)™Cortisol kit (Assay Designs, Inc.).
Cells were plated in 96 Well Flat Bottom Collagen-coated Microplates, 20,000 cell/well, in 200 μl/well MFE™ (Multi-functional Enhancing—XenoTech, LLC) medium, containing antibiotics (penicillin-streptomycin) and supplemented with 10% of heat inactivated fetal bovine serum. Plates were incubated at 37° C., 5% CO2 overnight. The following day, and before addition of cortisone and inhibitor compounds, medium was changed to Hepatocyte Basal Medium (HBM—Cambrex Bio ScienceWalkersVille, Inc) containing only antibiotics. Thirty-minute pre-incubation with various concentrations of inhibitor compounds (20 μL/well), was followed by addition of 5 μM Cortisone (20 μL/well), and cells were incubated at 37° C., 5% CO2 overnight. At the end of the incubation, 100 μL of each supernatant was analyzed for cortisol content using the Cortisol-EIA kit from Assay Designs, following manufacturers' instructions. Plates were read on a plate reader (Spectra MAX PLUS—Molecular Devices Corporation) at 405 nm, with correction at 580 nm. All results were compared to 100% activation control, i.e. cells treated only with cortisone (no inhibitors added).

human 11βHSD1 [4] = biological target: T1, human 11βHSD1; assay: HEK293-11βHSD1/GRE-Luciferase cell-based assay; set-up: expressed in transfected cells; settings: HEK293 cells over-expressing human 11βHSD1, GRE-luciferase readout, cortisone substrate, 6 h; read-out: HEK EC50
Procedure: HEK293-11 βHSD1/GRE-Luciferase Cell-Based Assay
Inhibition of 11βHSD1 enzyme activity was also measured using human kidney HEK293 stable transfected cells, over-expressing human 11βHSD1, and a reporter plasmid containing DNA sequences for specific recognition of glucocorticoid-activated glucocorticoid receptors (GRE), using a method similar to that described in Bujalska et al, Human 11β-hydroxysteroid dehydrogenase: Studies on the stably transfected isoforms and localization of the type 2 isozyme within renal tissue, Steroids, 62(1), […], 77-82 . These sequences were fused to a luciferase reporter gene (Luc) allowing for quantification of 11 βHSD1 enzyme modulation. […] Cortisol (but not cortisone) binds and activates glucocorticoid receptors (GR), which will result in activation of luciferase and production of light (assay readout). A compound with the capability of inhibiting 11βHSD1 will reduce the luciferase signal, as compared to the cortisone control (enzyme substrate).
Cells were plated in 384 Well Flat Bottom White Polystyrene TC-Treated Microplates, at 20,000 cell/well at a volume of 40 μl/well, in serum-free DME Medium. Plates were incubated at 37° C., 5% CO2 overnight before addition of inhibitor compounds. Different concentrations of inhibitor compounds were added in 10% (v/v) dimethylsulfoxide (5 μL/well), followed by addition of 3 μM Cortisone (5 μL/well), and cells were incubated at 37° C. (5% CO2) for six hours. At the end of the incubation, 25 μL/well SteadyLite HTS were added and plates were incubated 10min at room temp on shaker. Plates were then read on Top Count using 384HSD1 program. The concentration of inhibitor compound causing 50% inhibition of light signal was determined via a custom made Excel Macro. All results were compared to 100% activation control, i.e. cells treated only with cortisone (no inhibitors added).

T1 sequence (P28845 whole entry): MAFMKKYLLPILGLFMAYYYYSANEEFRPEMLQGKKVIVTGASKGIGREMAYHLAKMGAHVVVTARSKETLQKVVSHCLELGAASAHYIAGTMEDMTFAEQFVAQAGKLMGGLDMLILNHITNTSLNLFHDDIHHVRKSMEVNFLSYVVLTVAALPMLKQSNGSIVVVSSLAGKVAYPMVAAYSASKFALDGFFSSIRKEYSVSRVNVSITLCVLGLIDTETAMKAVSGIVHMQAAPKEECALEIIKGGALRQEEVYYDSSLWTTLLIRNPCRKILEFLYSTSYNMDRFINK

SMILES	Ki (human 11βHSD1 [1]) [nM]	% inh @ 0.1 uM (human 11βHSD1 [2]) [%]	EC50 (human 11βHSD1 [4]) [nM]	inhibition at 0.1 µM (human 11βHSD1 [2]) [%]	EC50 (human 11βHSD1 [3]) [nM]
CC(O)c1cccc(NS(=O)(=O)c2ccc(-c3ccc(C#N)cc3)cc2)n1 (single isomer, unassigned; (+)) [2(+), (+)-4′-Cyano-N-[6-(1-hydroxyethyl)pyridin-2-yl]biphenyl4-sulfonamide]	19	85	160	–	56
CC(O)c1cccc(NS(=O)(=O)c2ccc(-c3ccc(C#N)cc3)cc2)n1 (single isomer, unassigned; (-)) [2(−), (−)4′-Cyano-N-[6-(1-hydroxyethyl)pyridin-2-yl]biphenyl4-sulfonamide]	–	53	–	–	–
Cc1cc(-c2ccc(C#N)cc2)ccc1S(=O)(=O)Nc1cccc(C(C)O)n1 (single isomer, unassigned; (-)) [4(−), (−)4′-Cyano-N-[6-(1-hydroxyethyl)pyridin-2-yl]-3-methylbiphenyl4-sulfonamide]	–	–	–	84	–
Cc1cc(N)nc(NS(=O)(=O)c2sc(-c3ccc(C#N)cc3)nc2C)c1 [Example 1, N-(6-amino-4-methylpyridin-2-yl)-2-(4-cyanophenyl)-4-methyl-1,3-thiazole-5-sulfonamide]	1.8	–	–	100	–
Cc1cc(S(=O)(=O)Nc2cccc(N)n2)c(F)cc1Cl [Example 5, N-(6-aminopyridin-2-yl)-4-chloro-2-fluoro-5-methylbenzenesulfonamide]	9.7	–	–	93	–
Cc1cc(N)nc(NS(=O)(=O)c2cc(C)c(Cl)cc2F)c1 [Example 6, N-(6-amino-4-methylpyridin-2-yl)-4-chloro-2-fluoro-5-methylbenzenesulfonamide]	2.8	–	–	98	–
CCCCOc1ccc(S(=O)(=O)Nc2cccc(N)n2)cc1 [Example 7, N-(6-aminopyridin-2-yl)-4-butoxybenzenesulfonamide]	3.8	–	–	100	–
CCNc1cccc(NS(=O)(=O)c2ccc(-c3ccc(C#N)cc3)cc2)n1 [Example 8, 4′-cyano-N-[6-(ethylamino)pyridin-2-yl]biphenyl4-sulfonamide]	4.8	–	–	88	–

Second part, led by results:

Ki (human 11βHSD1 [1]) [nM]	% inh @ 0.1 uM (human 11βHSD1 [2]) [%]	EC50 (human 11βHSD1 [4]) [nM]	inhibition at 0.1 µM (human 11βHSD1 [2]) [%]	SMILES	EC50 (human 11βHSD1 [3]) [nM]
5.19	97.9	50.7	–	CCC(O)c1cccc(NS(=O)(=O)c2ccc(-c3ccc(C#N)cc3)cc2)n1 (single isomer, unassigned; (+)) [3(+), (+)-4′-cyano-N-[6-(1-hydroxypropyl)pyridin-2-yl]biphenyl-4-sulfonamide]	11.6
2.7	–	23.1	100	Cc1cc(-c2ccc(C#N)cc2)ccc1S(=O)(=O)Nc1cccc(C(C)O)n1 (single isomer, unassigned; (+)) [4(+), (+)4′-Cyano-N-[6-(1-hydroxyethyl)pyridin-2-yl]-3-methylbiphenyl4-sulfonamide]	7.86
–	59	–	–	CCC(O)c1cccc(NS(=O)(=O)c2ccc(-c3ccc(C#N)cc3)cc2)n1 (single isomer, unassigned; (-)) [3(−), (−)4′-cyano-N-[6-(1-hydroxypropyl)pyridin-2-yl]biphenyl-4-sulfonamide]	–
–	–	423	–	N#Cc1ccc(-c2ccc(S(=O)(=O)Nc3cccc(CCO)n3)cc2)cc1 [Comparative Example A, reference compound]	77.7
2.8	–	59	100	N#Cc1ccc(-c2ccc(S(=O)(=O)Nc3cccc(CO)n3)cc2)cc1 [Example 9, 4′-cyano-N-[6-(hydroxymethyl)pyridin-2-yl]biphenyl-4-sulfonamide]	21.8
